Experimental data: US6589992B2, “Inhibiting collagen-induced platelet aggregation” (Parker Hughes Institute, priority 1999, dated 2003)
“Also recorded” adds a separate entry of the source. Like-named read-outs stand apart in the source and are kept apart here.

Columns and labels:
platelets [1] = assay: Thrombin-induced platelet aggregation (aggregometer); type: cell-based, human; details: thrombin 0.1 U/mL
Method: (§1) Platelet aggregation with respect to control was monitored in a Chronolog Model 560 Dual Chamber Platelet Aggregometer.
(§2) Controls were treated with vehicle (PBS supplemented with 1% DMSO) alone. The treated PRP samples were diluted 1:4 with sterile normal saline and platelets were stimulated with collagen (2 μg/mL or 5 μg/mL, Chronolog Inc., Philadelphia, Pa.) or thrombin (0.1 U/mL, Chronolog Inc., Philadelphia, Pa.) as agonists under stirred conditions. Platelet aggregation was monitored in a platelet aggregometer (Model 560 Dual Chamber-Instrument, Chronolog Ind., Philadelphia, Pa.) for 5 minutes.

SRC = target: T1, SRC (Homo sapiens, UniProt P12931); assay: SRC activity in platelets; type: cell-based; details: data not shown
T1 construct: endogenous in cells; host or cells: platelets

platelets [2] = assay: Collagen-induced calcium mobilization in platelets (fluorescence); type: cell-based, human; details: 100 μM; collagen 20 μg/ml
Method: Platelets were loaded with […] (Molecular Probes, Eugene Oreg.) for 15 minutes at 37 degrees C. […] The changes in fluorescence were monitored on a spectrofluorimeter.

BTK = BTK (Homo sapiens, UniProt Q06187); assay: BTK immune complex kinase assay from collagen-stimulated platelets; details: 100 μM
Method: Platelets were isolated from platelet rich plasma (PRP) purchased from the Memorial Blood Bank (Minneapolis, Minn.) as previously described (Asselin et al. 1997) and used at a concentration of 3×10^9 cells/mL in a modified Tyrode's buffer (137 mM NaCl, 2.7 mM KCl, 0.9 mM MgCl2, 5.5 mM glucose, 3.3 mM NaH2PO4, 3.8 mM Hepes, pH 7.4). […] Platelets were then stimulated at 37° C. with 2 μg/mL (or 10 μg/mL) collagen or 0.1 U/mL thrombin (Chronolog Inc., Philadelphia, Pa.). Stimulation was stopped and platelets were lysed at the indicated time points by adding ice cold 3x Triton X-100 lysis buffer (150 mM NaCl, 15 mM EGTA, 3% Triton X-100, 3% Sodium deoxycholate, 0.3% SDS, 3 mM PMSF, 3 mM Na3 VO4, 60 μg/mL leupeptin, 60 μg/mL aprotinin, 50 mM Tris-HCl pH 7.4) and incubating for 1 hour on ice. Following removal of the membranous fraction by centrifugation (12,000xg, 30 min) the samples were subjected to immunoprecipitation utilizing antibodies raised against BTK (Santa Cruz Biotechnologies, Santa Cruz, Calif.), TEC (Upstate Biotechnology, Lake Placid, N.Y.) and PLCγ2 (Santa Cruz Biotechnologies, Santa Cruz, Calif.) (Vassilev et al., 1999). Immunoprecipitations, immune-complex protein kinase assays, and immunoblotting on PVDF membranes (Milipore, Bedford, Mass.) using the ECL chemiluminescence detection system (Amersham Life Sciences, Arlington Heights, Ill.) were conducted as described previously (Mahajan et al., 1999; Sudbeck et al., 1999; Uckun et al., 1996a; Uckun et al., 1996b).
For immunoblotting, antibodies against phosphotyrosine (Transduction Labs, Lexington, Ky.), BTK (Santa Cruz Biotechnologies, Santa Cruz, Calif.), TEC (Upstate Biotechnology, Lake Placid, N.Y.) and PLCγ2 (Santa Cruz Biotechnologies, Santa Cruz, Calif.) were used. Horse radish peroxidase-conjugated sheep anti-mouse, donkey anti-rabbit secondary antibodies were purchased from Transduction Laboratories (Lexington, Ky.). Horse radish peroxidase-conjugated sheep anti-goat antibodies were purchased from Santa Cruz (Santa Cruz, Calif.). Following electrophoresis, kinase gels were dried onto Whatman 3M filter paper and subjected to phosphoimaging on a Molecular Imager (Bio-Rad, Hercules, Calif.) as well as autoradiography on film. Similarly, all chemiluminescent BTK/TEC Western blots were subjected to three dimensional densitometric scanning using the Molecular Imager and Imaging Densitometer using the Molecular Analyst/Macintosh version 2.1 software following the specifications of the manufacturer (Bio-Rad).
Antibodies raised against BTK and TEC utilized for immunoprecipitations and Western blot analysis were purchased from Santa Cruz (Santa Cruz, Calif.).
(§3) For each drug concentration, a BTK/TEC kinase activity index as determined by comparing the ratios of the kinase activity in phosphorimager units (PIU) and density of the protein bands in densitometric scanning units (DSU) to those of the baseline sample and using the formula: Activity Index=[PIU of kinase band/DSU of BTK/TEC protein band]test sample: [PIU of kinase band/DSU of BTK/TEC protein band]baseline control sample (FIGS. 1A-1D).
The samples were subjected to immunoprecipitation utilizing antibodies raised against BTK. The BTK immune complexes were subjected to immune kinase assays.

ICR mice = assay: Thromboplastin-induced fatal thromboembolism in mice; type: in vivo; details: for median survival time / probability of event-free survival after thromboplastin challenge: N=10
Method: The mice were challenged with 25 mg/kg thromboplastin (Sigma, St. Louis, Mo.) via a bolus i.v. injection in to the tail vein as previously described (Sato et al., 1998). At the time of thromboembolism-related death, after the thromboplastin injection or elective sacrifice at 48 hours using ketamine/xylazine, all mice were perfused with PBS followed by 4% phosphate buffered formalin. PBS and formalin were pumped through the left ventricle of the heart and allowed to exit through a 3 mm incision through the anterior wall of the right ventricle.

platelets [3] = assay: Serotonin release from collagen-stimulated platelets; type: cell-based, human; details: LFM-A13 treated, N=4
Method: Release of serotonin from collagen (10 and 20 μg/mL)-stimulated platelets was measured using a serotonin detection kit (Immunotech, Marseille, France) according to the manufacturer's specifications. Sonicated platelets were used for measurement of the total serotonin content of platelets.

mice = assay: Tail bleeding time in mice; type: in vivo
Method: Mice were placed in a tube holder and tail bleeding was performed with a 2 mm cut from the protruding tail tip, the tail was placed vertically into 10 mL normal saline in a 37° C. water bath and bleeding times determined as previously described (Teng et al., 1997). Platelet plug formation and clotting times on the eye after retro-orbital venupuncture were evaluated using published methods (Sheu et al., 1995).

platelets [4] = assay: Collagen-induced platelet aggregation (aggregometer); type: cell-based, human; details: for IC50: 30 min pretreatment
Method: as §1, §2

PLCγ2 = assay: Collagen-induced PLCγ2 tyrosine phosphorylation in platelets (immunoprecipitation/Western blot); type: cell-based, human; details: 100 μM, 30 min pretreatment; 2 μg/mL collagen
Text: The membrane was stripped and re-probed with antibodies raised against PLCγ2. An increase in the level of phosphorylated PLCγ2 was seen between 30 and 45 seconds following collagen stimulation.

SYK = target: T2, SYK (Homo sapiens, UniProt P43405); assay: SYK activity in platelets; type: cell-based; details: data not shown
T2 construct: endogenous in cells; host or cells: platelets

TEC kinase = target: T3, TEC kinase (Homo sapiens, UniProt P42680); assay: TEC immune complex kinase assay from collagen-stimulated platelets; type: cell-based
T3 sequence (P42680 1-631): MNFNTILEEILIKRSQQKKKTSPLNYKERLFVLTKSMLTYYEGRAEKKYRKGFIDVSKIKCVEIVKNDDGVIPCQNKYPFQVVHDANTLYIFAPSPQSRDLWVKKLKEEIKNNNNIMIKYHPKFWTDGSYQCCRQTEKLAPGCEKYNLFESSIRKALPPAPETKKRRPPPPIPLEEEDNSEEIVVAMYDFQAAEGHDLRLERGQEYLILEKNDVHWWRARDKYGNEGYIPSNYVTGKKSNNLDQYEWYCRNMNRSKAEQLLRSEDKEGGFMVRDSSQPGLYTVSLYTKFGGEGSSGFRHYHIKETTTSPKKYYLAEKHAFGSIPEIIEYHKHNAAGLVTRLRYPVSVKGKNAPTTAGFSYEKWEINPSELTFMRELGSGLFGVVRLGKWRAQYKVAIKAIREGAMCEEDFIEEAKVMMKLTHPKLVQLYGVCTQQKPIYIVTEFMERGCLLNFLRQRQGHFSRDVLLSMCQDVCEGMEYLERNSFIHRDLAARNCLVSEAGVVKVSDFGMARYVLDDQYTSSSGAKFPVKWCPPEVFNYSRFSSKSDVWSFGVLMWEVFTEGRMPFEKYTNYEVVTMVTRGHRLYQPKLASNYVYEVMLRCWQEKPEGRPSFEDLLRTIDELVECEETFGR
Method: Platelets were isolated from platelet rich plasma (PRP) purchased from the Memorial Blood Bank (Minneapolis, Minn.) as previously described (Asselin et al. 1997) and used at a concentration of 3×10^9 cells/mL in a modified Tyrode's buffer (137 mM NaCl, 2.7 mM KCl, 0.9 mM MgCl2, 5.5 mM glucose, 3.3 mM NaH2PO4, 3.8 mM Hepes, pH 7.4). […] Platelets were then stimulated at 37° C. with 2 μg/mL (or 10 μg/mL) collagen or 0.1 U/mL thrombin (Chronolog Inc., Philadelphia, Pa.). Stimulation was stopped and platelets were lysed at the indicated time points by adding ice cold 3x Triton X-100 lysis buffer (150 mM NaCl, 15 mM EGTA, 3% Triton X-100, 3% Sodium deoxycholate, 0.3% SDS, 3 mM PMSF, 3 mM Na3 VO4, 60 μg/mL leupeptin, 60 μg/mL aprotinin, 50 mM Tris-HCl pH 7.4) and incubating for 1 hour on ice. […]
as §3

[5] = 30 min, 0 seconds after 2 μg/ml collagen
[6] = 30 min, 90 seconds after 2 μg/ml collagen

BTK, sequence (Q06187 whole entry): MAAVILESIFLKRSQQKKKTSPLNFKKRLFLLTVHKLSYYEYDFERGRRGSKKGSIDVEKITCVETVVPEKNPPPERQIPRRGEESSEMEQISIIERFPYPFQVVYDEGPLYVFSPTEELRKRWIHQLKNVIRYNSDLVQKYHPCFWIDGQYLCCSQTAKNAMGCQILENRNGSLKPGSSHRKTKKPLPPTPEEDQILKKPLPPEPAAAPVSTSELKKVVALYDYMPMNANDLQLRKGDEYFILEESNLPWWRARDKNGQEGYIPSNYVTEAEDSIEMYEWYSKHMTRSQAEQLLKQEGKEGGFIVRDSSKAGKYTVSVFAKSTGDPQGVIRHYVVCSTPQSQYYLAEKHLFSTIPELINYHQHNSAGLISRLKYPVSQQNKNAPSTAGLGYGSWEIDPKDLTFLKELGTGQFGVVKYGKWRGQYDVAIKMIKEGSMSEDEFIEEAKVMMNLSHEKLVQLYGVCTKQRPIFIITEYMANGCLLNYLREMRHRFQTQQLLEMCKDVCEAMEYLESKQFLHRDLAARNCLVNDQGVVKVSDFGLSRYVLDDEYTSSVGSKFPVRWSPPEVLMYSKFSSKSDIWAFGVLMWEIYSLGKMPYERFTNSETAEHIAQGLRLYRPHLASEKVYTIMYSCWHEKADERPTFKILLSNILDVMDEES
T1 sequence (P12931 whole entry): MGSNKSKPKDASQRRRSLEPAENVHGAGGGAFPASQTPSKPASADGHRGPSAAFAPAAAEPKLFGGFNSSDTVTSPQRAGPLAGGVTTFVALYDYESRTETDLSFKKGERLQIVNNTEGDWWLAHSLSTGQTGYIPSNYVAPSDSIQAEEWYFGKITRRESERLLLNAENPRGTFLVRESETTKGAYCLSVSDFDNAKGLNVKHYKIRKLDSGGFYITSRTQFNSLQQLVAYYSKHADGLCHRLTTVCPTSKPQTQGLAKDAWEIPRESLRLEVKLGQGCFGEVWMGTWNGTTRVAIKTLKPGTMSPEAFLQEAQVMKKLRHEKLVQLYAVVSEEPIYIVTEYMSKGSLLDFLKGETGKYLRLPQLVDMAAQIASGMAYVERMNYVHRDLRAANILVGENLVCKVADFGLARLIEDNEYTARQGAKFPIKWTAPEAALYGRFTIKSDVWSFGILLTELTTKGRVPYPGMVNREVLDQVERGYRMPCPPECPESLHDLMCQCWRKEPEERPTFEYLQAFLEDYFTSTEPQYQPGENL

SMILES: C/C(O)=C(\C#N)C(=O)Nc1cc(Br)ccc1Br [LFM-A13, α-cyano-β-hydroxy-β-methyl-N-(2,5-dibromophenyl)-propenamide]
- thrombin-induced platelet aggregation, PRP (platelets [1]; PRP treated 20 min or 24 hours): No significant effect
- effect on thrombin-induced platelet aggregation (platelets [1]; up to 1000 μM): No significant effect; also recorded: not impaired
- baseline and collagen-induced SRC activity in platelets (SRC): did not inhibit the baseline activity of SYK or SRC or prevent collagen-induced SYK and SRC activation
- collagen-induced calcium mobilization (platelets [2]): significantly reduced
- DSU (density of BTK protein band, densitometric scanning units) (BTK; [5]): 1236
- PIU (BTK autophosphorylation, phosphorimager units) (BTK; [5]): 78
- BTK kinase activity in collagen-stimulated platelets (BTK; 30 min, 2 μg/mL collagen): completely prevented collagen-induced stimulation of BTK; also recorded: significantly inhibited BTK kinase activity
- DSU (density of BTK protein band, densitometric scanning units) (BTK; [6]): 1432
- PIU (BTK autophosphorylation, phosphorimager units) (BTK; [6]): 68
- reduction of baseline BTK activity in platelets (BTK; 30 min at 37° C.): > 90%
- median survival time (ICR mice; LFM-A13 20 mg/kg): 8.0 min
- probability of event-free survival after thromboplastin challenge (ICR mice; LFM-A13 20 mg/kg): 20±13%
- median survival time (ICR mice; LFM-A13 40 mg/kg): > 2880 min
- probability of event-free survival after thromboplastin challenge (ICR mice; LFM-A13 40 mg/kg): 80±13%
- drug-related toxic lesions in organs (ICR mice; LFM-A13 pretreated, thromboplastin-challenged mice): No drug-related toxic lesions were detected
- serotonin in platelet supernatants (platelets [3]): 369 ± 14 nM
- prolongation of tail bleeding time versus vehicle (mice; 20 mg/kg): 4.9 fold
- average tail bleeding time (mice; 20 mg/kg i.v., N=5): 7.4 ± 1.0 min
- prolongation of tail bleeding time versus vehicle (mice; 40 mg/kg): 5.6 fold
- average tail bleeding time (mice; 40 mg/kg i.v., N=5): 8.5 ± 0.6 min
- prolongation of tail bleeding time versus vehicle (mice; 80 mg/kg): 6.3 fold
- average tail bleeding time (mice; 80 mg/kg i.v., N=12): 9.5 ± 0.5 min
- collagen-induced platelet aggregation at 100 μM (platelets [4]; 100 μM, 30 minute pretreatment, 2 μg/mL collagen): completely prevented
- IC50 (platelets [4]; Homo sapiens, Platelet, read-out: IC50 inhibition of platelet aggregation, 2 μg/mL collagen): 2.78 µM
- IC50 (platelets [4]; Homo sapiens, Platelet, read-out: IC50 inhibition of platelet aggregation, 5 μg/mL collagen): 66.1 µM
- platelet response to high and low doses of collagen, PRP (platelets [4]; PRP treated 20 min or 24 hours, collagen 2 or 5 μg/mL): significantly reduced
- IC50 (platelets [4]; read-out: IC50 inhibition of platelet aggregation, 2 μg/mL collagen): 2.8 ± 0.93 µM
- collagen-induced tyrosine phosphorylation of PLCγ2 (PLCγ2): no enhanced tyrosine phosphorylation of PLCγ2 was detected; also recorded: No phosphorylation of PLCγ2 was noted
- baseline and collagen-induced SYK activity in platelets (SYK): did not inhibit the baseline activity of SYK or SRC or prevent collagen-induced SYK and SRC activation
- collagen-induced stimulation of TEC kinase in platelets (TEC kinase; collagen-stimulated platelets): prevented collagen-induced stimulation of TEC kinase
- baseline activity of TEC in unstimulated platelets (TEC kinase; unstimulated platelets): did not reduce the baseline activity of TEC
